Usually IC50 stands for the concentration that inhibits the measured activity by half. Lower therefore signals greater potency in that assay.

The source of these data is patent US20250388567A1, “SELECTIVE G PROTEIN-COUPLED RECEPTOR KINASE 5 INHIBITORS, COMPOSITIONS, AND METHODS OF USE” (Purdue Research Foundation, priority 2022, published 2025).

In one assay the target is human GRK5 (Homo sapiens (Human), UniProt P34947). The assay is described as follows: GRK5 radiometric inhibition assay (tubulin phosphorylation, [γ-32P]-ATP). Conditions: 50 nM GRK, 500 nM tubulin, 5 μM ATP. The class given is biochemical. How it is done:
(§1) Reactions were quenched at 8 min by addition of 5 μL of 4×SDS gel loading dye to the 10 μL reactions. […] Gels were dried, exposed to a storage phosphor screen overnight, and scanned using a Personal Molecular Imager (Bio-Rad). […] Outliers were eliminated automatically at a 1% Q value. Experiments were performed at least three times.
(§2) Standard control compounds are run during each assay to assess consistency across time, experimenters, and subtle changes in assay conditions that are sometimes required to keep compounds soluble and dispersed (e.g., through addition of DDM or 3% DMSO).

For the next assay, the target named is bovine GRK2 (Bos taurus (Bovine), UniProt P21146). The assay is described as follows: GRK2 radiometric inhibition assay (tubulin phosphorylation, [γ-32P]-ATP). The class given is biochemical. To be noted: 50 nM GRK, 500 nM tubulin, 5 μM ATP. How it is done:
as §1, §2

SMILES strings stand for the structures.

Sequence of human GRK5 (P34947 whole entry): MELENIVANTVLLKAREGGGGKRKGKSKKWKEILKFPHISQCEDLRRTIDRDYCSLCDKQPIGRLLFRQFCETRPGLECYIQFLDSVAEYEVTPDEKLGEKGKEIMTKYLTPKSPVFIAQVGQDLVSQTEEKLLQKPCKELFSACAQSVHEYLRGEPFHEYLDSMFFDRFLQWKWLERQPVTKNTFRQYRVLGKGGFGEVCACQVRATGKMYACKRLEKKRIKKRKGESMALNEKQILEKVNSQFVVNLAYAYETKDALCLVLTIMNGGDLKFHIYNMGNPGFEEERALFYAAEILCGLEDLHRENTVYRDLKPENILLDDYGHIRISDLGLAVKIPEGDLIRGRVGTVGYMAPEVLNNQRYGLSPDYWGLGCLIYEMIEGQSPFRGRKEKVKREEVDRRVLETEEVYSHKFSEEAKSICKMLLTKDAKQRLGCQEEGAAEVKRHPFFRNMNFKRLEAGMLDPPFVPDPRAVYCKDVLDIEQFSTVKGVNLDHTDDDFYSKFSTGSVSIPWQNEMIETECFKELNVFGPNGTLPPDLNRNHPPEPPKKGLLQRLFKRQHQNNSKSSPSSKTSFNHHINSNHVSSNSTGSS
Sequence of bovine GRK2 (P21146 whole entry): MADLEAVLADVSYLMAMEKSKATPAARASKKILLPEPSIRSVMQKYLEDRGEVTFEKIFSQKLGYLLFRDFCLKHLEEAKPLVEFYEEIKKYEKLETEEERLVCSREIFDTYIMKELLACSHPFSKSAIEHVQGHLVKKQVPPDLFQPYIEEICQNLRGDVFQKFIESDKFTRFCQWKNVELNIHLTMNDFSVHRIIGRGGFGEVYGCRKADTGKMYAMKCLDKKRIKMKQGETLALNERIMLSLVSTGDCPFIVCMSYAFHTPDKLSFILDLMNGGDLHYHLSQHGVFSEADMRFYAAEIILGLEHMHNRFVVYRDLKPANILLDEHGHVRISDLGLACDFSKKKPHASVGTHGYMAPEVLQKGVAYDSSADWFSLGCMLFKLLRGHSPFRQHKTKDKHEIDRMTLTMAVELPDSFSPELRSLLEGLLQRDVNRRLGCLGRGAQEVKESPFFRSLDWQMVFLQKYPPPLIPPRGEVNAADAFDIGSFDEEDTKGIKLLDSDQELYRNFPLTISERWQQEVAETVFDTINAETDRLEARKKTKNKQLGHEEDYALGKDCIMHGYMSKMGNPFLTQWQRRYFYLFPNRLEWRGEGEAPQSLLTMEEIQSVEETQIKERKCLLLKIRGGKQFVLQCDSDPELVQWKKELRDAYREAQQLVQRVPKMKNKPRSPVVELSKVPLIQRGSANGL

Turning to `Cc1[nH]c(/C=C2\C(=O)Nc3ccc(C(=O)N[C@H](C)c4ccc(F)cc4)cc32)c(C)c1C(=O)NCC1CCCO1` (mixture of isomers) [Compound 35], the IC50 is 1 to 100 nM at human GRK5 and over 10000 nM against bovine GRK2.

On to `Cc1[nH]c(/C=C2\C(=O)Nc3ccc(C(=O)N[C@H](C)c4ccccc4)cc32)c(C)c1C(=O)NC1CCOC1` (mixture of isomers) [Compound 39], for which the 50% inhibitory concentration (IC50) on human GRK5 lay in the range of 1 to 100 nM; on bovine GRK2 it was 1000 to 10000 nM.

As for `Cc1[nH]c(/C=C2\C(=O)Nc3ccc(C(=O)N[C@H](C)c4ccccc4)cc32)c(C)c1C(=O)NCC1CCOC1` (mixture of isomers) [Compound 40], the concentration for half-maximal inhibition (IC50) against human GRK5 was 1 to 100 nM; at bovine GRK2, 1000 to 10000 nM.

In the case of `Cc1[nH]c(/C=C2\C(=O)Nc3ccc(C(=O)N[C@H](C)c4ccc(F)cc4)cc32)c(C)c1NC(=O)C(O)c1ccccc1` (stereo partly drawn) [Compound 1], the half-inhibitory concentration (IC50) against bovine GRK2 is over 10000 nM.

On to `COc1cccc2[nH]c(C(O)C(=O)Nc3c(C)[nH]c(/C=C4\C(=O)Nc5ccc(C(=O)N[C@H](C)c6ccc(F)cc6)cc54)c3C)cc12` (stereo partly drawn) [Compound 4], for which the IC50 against human GRK5 was 101 to 999 nM; at bovine GRK2, over 10000 nM.

`Cc1[nH]c(/C=C2\C(=O)Nc3ccc(C(=O)N[C@H](C)c4ccccc4)cc32)c(C)c1C(=O)N[C@@H]1c2ccccc2C[C@@H]1O` [Compound 5]: the IC50 on human GRK5 was 101 to 999 nM; against bovine GRK2, over 10000 nM.

For `Cc1[nH]c(/C=C2\C(=O)Nc3ccc(C(=O)N[C@H](C)c4ccccc4)cc32)c(C)c1C(=O)N[C@@H]1c2ccccc2C[C@H]1O` [Compound 6], the figures for the IC50 on human GRK5 and at bovine GRK2 were 101 to 999 nM and over 10000 nM, respectively.

On to `Cc1[nH]c(/C=C2\C(=O)Nc3ccc(C(=O)N[C@H](C)c4ccccc4)cc32)c(C)c1C(=O)N[C@H]1c2ccccc2C[C@@H]1O` [Compound 7], for which the IC50 at human GRK5 is 101 to 999 nM; at bovine GRK2 it was over 10000 nM.

In the case of `Cc1[nH]c(/C=C2\C(=O)Nc3ccc(C(=O)N[C@H](C)c4ccccc4)cc32)c(C)c1C(=O)N[C@H]1c2ccccc2C[C@H]1O` [Compound 8], the values for the IC50 at human GRK5 and against bovine GRK2 were 101 to 999 nM and over 10000 nM, respectively.

For the molecule `Cc1[nH]c(/C=C2\C(=O)Nc3ccc(C(=O)N[C@@H]4CCc5ccccc54)cc32)c(C)c1NC(=O)C(=O)c1ccco1` [Compound 9], the IC50 against human GRK5 and at bovine GRK2 was over 10000 nM each time.

Consider `Cc1[nH]c(/C=C2\C(=O)Nc3ccc(C(=O)N[C@@H]4CCc5ccccc54)cc32)c(C)c1NC(=O)C(O)c1ccco1` (stereo partly drawn) [Compound 10], for which the concentration for half-maximal inhibition (IC50) was 101 to 999 nM at human GRK5 and over 10000 nM against bovine GRK2.

Regarding `Cc1[nH]c(/C=C2\C(=O)Nc3ccc(C(=O)N[C@H]4CCc5ccccc54)cc32)c(C)c1NC(=O)C(=O)c1ccco1` [Compound 11], the values for the IC50 at human GRK5 and at bovine GRK2 were 1000 to 10000 nM and over 10000 nM, respectively.

As to `Cc1[nH]c(/C=C2\C(=O)Nc3ccc(C(=O)N[C@H]4CCc5ccccc54)cc32)c(C)c1NC(=O)C(O)c1ccco1` (stereo partly drawn) [Compound 12], the 50% inhibitory concentration (IC50) on human GRK5 was 1000 to 10000 nM; against bovine GRK2, over 10000 nM.

In the case of `Cc1[nH]c(CC2C(=O)Nc3ccc(C(=O)N[C@H](C)c4ccc(F)cc4)cc32)c(C)c1NC(=O)[C@H](O)c1ccco1` (stereo partly drawn) [Compound 13], the IC50 against human GRK5 is 101 to 999 nM; against bovine GRK2, over 10000 nM.

For the molecule `Cc1[nH]c(/C=C2\C(=O)Nc3ccc(C(=O)N[C@H](C)c4ccccc4)cc32)c(C)c1C(=O)N[C@@H]1CCc2ccccc21` [Compound 16], the IC50 is 1000 to 10000 nM against human GRK5 and over 10000 nM at bovine GRK2.

Consider `Cc1[nH]c(/C=C2\C(=O)Nc3ccc(C(=O)N[C@H](C)c4ccccc4)cc32)c(C)c1C(=O)N[C@H]1CCc2ccccc21` [Compound 17], for which the concentration for half-maximal inhibition (IC50) against human GRK5 and at bovine GRK2 was over 10000 nM throughout.

Consider `Cc1[nH]c(/C=C2\C(=O)Nc3ccc(C(=O)N[C@H](C)c4ccccc4)cc32)c(C)c1C(O)C#N` (stereo partly drawn) [Compound 18], for which the IC50 at human GRK5 was 101 to 999 nM; at bovine GRK2, over 10000 nM.

As to `Cc1[nH]c(/C=C2\C(=O)Nc3ccc(C(=O)N[C@H](C)c4ccc(F)cc4)cc32)c(C)c1C(=O)N[C@@H]1c2ccccc2C[C@H]1O` [Compound 19], the IC50 against human GRK5 is 101 to 999 nM; on bovine GRK2, over 10000 nM.

Take `Cc1[nH]c(/C=C2\C(=O)Nc3ccc(C(=O)N[C@H](C)c4ccccc4)cc32)c(C)c1C(=O)N[C@H]1C(=O)Cc2ccccc21` [Compound 20]: the IC50 against human GRK5 is 101 to 999 nM; at bovine GRK2, over 10000 nM.

In turn, `Cc1[nH]c(/C=C2\C(=O)Nc3ccc(C(=O)N[C@H](C)c4ccc(F)cc4)cc32)c(C)c1NC(=O)c1ccoc1` [Compound 21] registered an IC50 against human GRK5 of 1 to 100 nM.

`Cc1[nH]c(/C=C2\C(=O)Nc3ccc(C(=O)N[C@H](C)c4ccc(F)cc4)cc32)c(C)c1NC(=O)C(O)c1ccoc1` (stereo partly drawn) [Compound 22]: the IC50 against human GRK5 was in the range of 1 to 100 nM; against bovine GRK2, 1000 to 10000 nM.

Consider `COCO[C@@H]1Cc2ccccc2[C@H]1NC(=O)c1c(C)[nH]c(/C=C2\C(=O)Nc3ccc(C(=O)N[C@H](C)c4ccccc4)cc32)c1C` [Compound 23], for which the IC50 against human GRK5 and on bovine GRK2 was over 10000 nM each time.

As to `Cc1[nH]c(/C=C2\C(=O)Nc3ccc(C(=O)N[C@H](C)c4ccccc4)cc32)c(C)c1C(=O)N[C@@H]1c2ccccc2CC[C@@H]1O` [Compound 24], the values for the IC50 against human GRK5 and against bovine GRK2 were 101 to 999 nM and over 10000 nM, respectively.

For `Cc1[nH]c(/C=C2\C(=O)Nc3ccc(C(=O)N[C@H](C)c4ccccc4)cc32)c(C)c1C(=O)N[C@H]1c2ccccc2CC[C@H]1O` [Compound 25], the values for the IC50 at human GRK5 and against bovine GRK2 were 101 to 999 nM and over 10000 nM, respectively.

On to `Cc1[nH]c(/C=C2\C(=O)Nc3ccc(C(=O)N[C@H](C)c4ccccc4)cc32)c(C)c1C(=O)NC1c2ccccc2OCC1O` (stereo partly drawn) [Compound 26], for which the results for the IC50 against human GRK5 and against bovine GRK2 were 101 to 999 nM and over 10000 nM, respectively.

Regarding `Cc1[nH]c(/C=C2\C(=O)Nc3ccc(C(=O)N[C@H](C)c4ccccc4)cc32)c(C)c1C(=O)NCC(O)c1ccco1` (stereo partly drawn) [Compound 27], the IC50 on human GRK5 fell in the range of 1 to 100 nM; against bovine GRK2 it was 1000 to 10000 nM.

Take `COc1cccc(C(O)C(=O)Nc2c(C)[nH]c(/C=C3\C(=O)Nc4ccc(C(=O)N[C@H](C)c5ccc(F)cc5)cc43)c2C)c1` (stereo partly drawn) [Compound 28]: the half-inhibitory concentration (IC50) on human GRK5 is 101 to 999 nM; at bovine GRK2, over 10000 nM.

For `Cc1[nH]c(/C=C2\C(=O)Nc3ccc(C(=O)N[C@H](C)c4ccccc4)cc32)c(C)c1C(=O)NCc1ccco1` [Compound 29], the IC50 against human GRK5 lay within 1 to 100 nM; against bovine GRK2 it was 1000 to 10000 nM.

Turning to `Cc1[nH]c(/C=C2\C(=O)Nc3ccc(C(=O)N[C@H](C)c4ccccc4)cc32)c(C)c1C(=O)NCC1CCCO1` (stereo partly drawn) [Compound 30], the IC50 lay in the range of 1 to 100 nM on human GRK5 and 1000 to 10000 nM against bovine GRK2.

Turning to `Cc1[nH]c(/C=C2\C(=O)Nc3ccc(C(=O)N[C@H](C)c4ccccc4)cc32)c(C)c1C(=O)NC(C)c1ccco1` (stereo partly drawn) [Compound 31], the IC50 against human GRK5 lay in the range of 1 to 100 nM; at bovine GRK2, 1000 to 10000 nM.

As for `Cc1[nH]c(/C=C2\C(=O)Nc3ccc(C(=O)N[C@H](C)c4ccccc4)cc32)c(C)c1C(=O)NCC(O)c1ccoc1` (stereo partly drawn) [Compound 32], the IC50 against human GRK5 was 1 to 100 nM; at bovine GRK2 it was 1000 to 10000 nM.

Turning to `Cc1[nH]c(/C=C2\C(=O)Nc3ccc(C(=O)N[C@H](C)c4ccccc4)cc32)c(C)c1C(=O)Nc1nc2ccccc2[nH]1` [Compound 33], the values for the IC50 on human GRK5 and against bovine GRK2 were 101 to 999 nM and 1000 to 10000 nM, respectively.

Turning to `Cc1[nH]c(/C=C2\C(=O)Nc3ccc(C(=O)N[C@H](C)c4ccccc4)cc32)c(C)c1C(=O)N[C@H]1Cc2ccccc2[C@H]1O` [Compound 34], the figures for the IC50 against human GRK5 and against bovine GRK2 were 1 to 100 nM and 1000 to 10000 nM, respectively.

As to `Cc1[nH]c(/C=C2\C(=O)Nc3ccc(C(=O)N[C@H](C)c4ccccc4)cc32)c(C)c1C(=O)NC[C@H]1CCCO1` [Compound 36], the figures for the IC50 against human GRK5 and against bovine GRK2 were 1 to 100 nM and over 10000 nM, respectively.

`Cc1[nH]c(/C=C2\C(=O)Nc3ccc(C(=O)N[C@H](C)c4ccccc4)cc32)c(C)c1C(=O)NC[C@@H]1CCCO1` [Compound 37]: the results for the IC50 against human GRK5 and on bovine GRK2 were 1 to 100 nM and 1000 to 10000 nM, respectively.

On to `Cc1[nH]c(/C=C2\C(=O)Nc3ccc(C(=O)N[C@H](C)c4ccccc4)cc32)c(C)c1C(=O)NCC1CCCCO1` (stereo partly drawn) [Compound 38], for which the IC50 was 1 to 100 nM on human GRK5 and over 10000 nM against bovine GRK2.

`Cc1[nH]c(/C=C2\C(=O)Nc3ccc(C(=O)N[C@H](C)c4ccccc4)cc32)c(C)c1C(=O)NCC1CC(=O)c2ccccc2O1` (stereo partly drawn) [Compound 41]: the IC50 against human GRK5 was 1 to 100 nM; on bovine GRK2 it was over 10000 nM.

In the case of `Cc1[nH]c(/C=C2\C(=O)Nc3ccc(C(=O)N[C@H](C)c4ccccc4)cc32)c(C)c1C(=O)NC1CCS(=O)(=O)CC1` [Compound 42], the results for the IC50 against human GRK5 and on bovine GRK2 were 101 to 999 nM and over 10000 nM, respectively.

Regarding `Cc1[nH]c(/C=C2\C(=O)Nc3ccc(C(=O)N[C@H](C)c4ccccc4)cc32)c(C)c1C(=O)NC1CCOCC1` [Compound 43], the IC50 at human GRK5 was 1000 to 10000 nM; at bovine GRK2 it was over 10000 nM.

For the molecule `Cc1[nH]c(/C=C2\C(=O)Nc3ccc(C(=O)N[C@H](C)c4ccccc4)cc32)c(C)c1C(=O)NCC(O)C1CCOC1` (stereo partly drawn) [Compound 44], the values for the IC50 against human GRK5 and at bovine GRK2 were 1 to 100 nM and over 10000 nM, respectively.
